Test results taken from patent US20240173276A1, “METHODS AND COMPOSITIONS FOR INHIBITING FORMATION OF THE HIV LATENT RESERVOIR” (The University of North Carolina at Chapel Hill, priority 2021, published 2024).

Tests used:
[1] = tested on: HIV-GFP infected primary CD4 T cells; experiment: Primary CD4 T cell latency model (HIV-GFP reporter, flow cytometry of GFP- cells); type: cell-based, human; details: for effect on the formation of latently infected (GFP-) cells: cultured in the presence of inhibitor from 2 dpi for up to 4 weeks, FIG. 1B
From the text: Viruses and cell culture: Stocks of HIV-GFP were generated by co-transfection of 293T cells with the pNL4-3-Δ6-dreGFP plasmid (generous gift of Robert Siliciano) and the packaging plasmids PAX2-GagPol) and MD2-VSVG, using Mirus LT1 reagent. At 2 days post transfection virus was harvested from the supernatant and clarified by low speed centrifugation, followed by filtration through a […] filter.
Primary cell latency model: Primary CD4 T cells were isolated from fresh whole blood (purchased from Gulf Coast Regional Blood Center) by Ficoll isolation of peripheral blood mononuclear cells (PBMCs), then magnetic negative selection of CD4 T cells using a CD4 enrichment kit (Stem Cell). Total primary CD4 T cells were activated using anti-CD3/CD28 beads (Thermo Fisher) at a ratio of one bead per cell for 2 days, then infected with HIV-GFP viral supernatant by spinocculation for 2 hrs at 600 g with 4 µg/mL polybrene. The infected cells were then resuspended in fresh RPMI with IL-2 (Peprotech) at 100 U/mL and incubated for two days before actively infected (GFP^+) cells were sorted using a FACSAria flow sorter (Becton Dickson). The purified infected cells (GFP^+) were then maintained at 1-2 million/mL with fresh media and IL-2 added every 2-3 days for 2 weeks. […] Other small molecule inhibitors were purchased from commercial vendors.
HIV latency is regulated by covalent modifications to provirus-associated histones that can promote or repress transcription. These modifications are mediated by a set of host cell enzyme complexes, including histone acetyl transferases (HATs), histone deacetylases (HDACs), histone methyltransferases (HMTs) and histone demethylases (HDMs). To investigate the role of these complexes in the establishment of HIV latency a primary CD4 T cell model of latency was examined. In this model, activated CD4 T cells are infected with a GFP expressing reporter strain of HIV. At 2 dpi, actively infected cells (GFP^+) are sorted to obtain a pure actively infected population, then cultured for 3-4 weeks (FIG. 1A). […] To examine the role of specific histone modifying enzymes in this system, actively infected (GFP^+) cells were isolated at 2 dpi and the cells cultured in the presence of a panel of inhibitors targeting chromatin modifying complexes. […] The infected cells were cultured in the presence of each inhibitor for up to 4 weeks. Each week post infection, the emergence of the latently infected (GFP^−) population was measured by flow cytometry (FIG. 1B).

[2] = tested on: HIV-dreGFP/Thy1.2 infected primary CD4 T cells; experiment: HDAC selective inhibitor experiments in HIV-dreGFP/Thy1.2 infected CD4 T cells (viral gene expression by flow cytometry); type: cell-based, human; details: cultured 14 d in the presence of inhibitor; FIG. 7B
From the text: FIGS. 7A-7D show Class I HDAC selective inhibitors reveal druggable dependency on HDAC1 and 2 in latency initiation. A. Schematic overview of HDAC selective inhibitor experiments. […] B. Dose response curve showing the proportion of cells with productive viral gene expression after two weeks of treatment with the indicated inhibitors. Data shown are from one representative cell donor conducted in technical triplicate. C. Time course flow cytometry experiment in HIV-GFP/Thy1.2 infected primary CD4 T cells cultured with the indicated inhibitors. […] D. Mean fluorescent intensity (MFI) of GFP signal in Thy1.2+ cells in data from C. Data shown are representative of three independent experiments.
However, the contribution and roles of individual HDACs are largely unknown. Because of the high homology of HDAC1 and HDAC2 in the enzyme activation site, selective inhibitors for HDAC1 or HDAC2 have not been developed. Thus, the impact of novel small molecules that inhibit both HDAC1 and HDAC2 (HDAC1/2i) or HDAC3 (HDAC3i) on HIV silencing in CD4 T cells was examined. Activated CD4 T cells were infected with HIV-dreGFP/Thy1.2 and cultured for 14 d in the presence of each inhibitor, and viral gene expression was measured by flow cytometry (FIG. 7A).

[3] = tested on: HIV-eGFP infected CD4 T cells; experiment: Surface marker phenotype of HIV infected CD4 T cells by flow cytometry; type: cell-based, human; details: vorinostat exposure post stimulation, vs DMSO, FIG. 4
Method: HIV gene expression is regulated by a set of host cell transcription factors that vary in activity as CD4 T cells adopt different activation states and sub-lineage identities post activation. […] To investigate this possibility, flow cytometry was performed to examine the surface marker phenotype of HIV infected cells.

[4] = previous clinical studies, vorinostat dosing; cited from earlier work

SMILES: COc1cc2nc(N3CCCN(C)CC3)nc(NC3CCN(Cc4ccccc4)CC3)c2cc1OC [BIX1294]
- effect on the formation of latently infected (GFP-) cells [1]: modest reduction in the percentage of latently infected cells

SMILES: Nc1cc(F)ccc1NC(=O)/C=C/c1cnn(C/C=C/c2ccccc2)c1 [RGFP966]
- latency prevention (prevention of HIV silencing), dose response [2]: much lower extent

SMILES: Nc1ncnc2c1ncn2[C@@H]1O[C@H](C[C@@H](N)CC[C@H](N)C(=O)O)[C@@H](O)[C@H]1O [Singefungin, sinefungin]
- effect on the formation of latently infected (GFP-) cells [1]: no significant effect

SMILES: CCCc1cc(C)[nH]c(=O)c1CNC(=O)c1cc(-c2ccc(N3CCN(C(C)C)CC3)nc2)cc2c1cnn2C(C)C [UNC1999]
- effect on the formation of latently infected (GFP-) cells [1]: modest reduction in the percentage of latently infected cells

SMILES: CC(C)N(C[C@H]1O[C@@H](n2cnc3c(N)ncnc32)[C@H](O)[C@@H]1O)[C@H]1C[C@@H](CCc2nc3cc(C(C)(C)C)ccc3[nH]2)C1 [pinometostat]
- effect on the formation of latently infected (GFP-) cells [1]: no significant effect

SMILES: O=C(CCCCCCC(=O)Nc1ccccc1)NO [vorinostat]
- GFP status of treated cells after removal of vorinostat ([1]; 2 weeks vorinostat, then 2 weeks culture without vorinostat, FIG. 2A): remained mostly GFP^−
- percentage of latent (GFP-) cells ([1]; 3 weeks post infection, in the presence of vorinostat, DMSO 70%): 10%
- reduction of latent (GFP-) population vs vehicle (DMSO) ([1]; 3 weeks post infection, from 70% (DMSO) to 10%): 7 fold
- impact on HIV latency, vorinostat in media 0-14 days post infection ([1]; add in / wash out, latently infected cells measured at 3 wpi, FIG. 2B): significant impact
- impact on frequency of latently infected cells, addition or removal between 14 dpi and 21 dpi ([1]; add in / wash out, measured at 3 wpi, FIG. 2B): little impact
- emergence of latently infected cells, continuous exposure ([1]; continuous vorinostat 500 nM, 3 weeks post infection, FIG. 1C): potently prevented the emergence of latently infected cells
- effect on the formation of latently infected (GFP-) cells [1]: potently inhibited the emergence of a latent (GFP^−) population
- establishment of latency, pulsatile exposure ([1]; daily 6 h pulse of vorinostat 500 nM followed by 18 h wash-out, 3 weeks, FIG. 1C): significantly block the establishment of latency in a subset of cells
- suppression of HIV latency over a range of concentrations ([1]; exposure for two weeks to different vorinostat concentrations, FIG. 2A): clear dose-dependent fashion
- fraction of cells with central memory phenotype (CD45RA- CCR7+) ([3]; 2-3 weeks post infection): increased fraction
- expression of CD4 T cell activation marker PD-1 [3]: did not lead to increased expression
- time of declining concentrations [4]: 6 to 24 h
- time of peak concentrations [4]: 2 to 6 h
